Results on ten compounds are retold here after patent publication US11325937B2, “Glycoside compound and preparation method therefor, composition, application, and intermediate” (SHANGHAI HUTCHISON PHARMACEUTICALS LIMITED, priority 2018, dated 2022).

For the assay, the system named is VEGF-A mRNA expression in macrophages (RAW264.7). Briefly: In vitro macrophage experiment: activity of compounds to promote VEGF-A mRNA expression (RT-qPCR). In kind it is cell-based. As to conditions: Mus musculus, RAW264.7 macrophages, 3 h, no drug = 1, read-out: Expression level of VEGF-A mRNA; for fold induction at 1 µM: relative expression 2^-ΔΔCt; for fold induction at 100 µM: 0.1 mM; for fold induction at 100 µM / fold induction at 500 µM / fold induction at 1000 µM / fold induction at 2000 µM / fold induction at 3000 µM: relative expression; for fold induction at 500 µM: 0.5 mM; for fold induction at 1000 µM: 1 mM; for fold induction at 2000 µM: 2 mM; for fold induction at 3000 µM: 3 mM. An excerpt:
1.1. Specific steps for activity screening: 1-10×10^6 macrophages (RAW264.7) in logarithmic growth phase were transferred to a cell culture plate. The test compounds (Compounds TG-001, TG-002, TG-003, TG-004, TG-005, TG-006, TG-007, TG-008, TG-009, TG-010, TG-011, TG-012, TG-013, TG-014, TG-015, TG-016, TG-017, TG-018, TG-019, TG-020, TG-021, TG-022, TG-023, TG-024, TG-025, TG-026, TG-027, TG-028, TG-029, TG-030, TG-031, TG-032, TG-033, TG-034, TG-035, TG-036, TG-037, TG-045, TG-039, TG-040 TG-041, TG-042, TG-043, TG-044, TG-045, TG-052, TG-053, TG-054, TG-047, TG-048, TG-046, TG-049, TG-050, TG-051, TG-055 and TG-056) were respectively diluted into various concentrations, and separately added to the cell culture plate containing macrophage. The cells were cultured for 3 h in a complete medium (RPMI 1640 medium:fetal bovine serum:tri-resistance screening agent (i.e. penicillin-streptomycin-gentamicin, Beijing Leagene Biotechnology Co., Ltd.)=89:10:1 based on volume) in a cell incubator at 37° C. and 5% CO2. The cells were lyzed by Trizol (Beijing ComWin Biotech Co., Ltd) to extract RNA, and the RNA concentration was measured using a microvolume nucleic acid and protein analyzer (Nanodrop2000c). The required volume V of RNA was calculated according to the RNA concentration, and the RNA reverse transcription reaction system was prepared according to Table 1. Then RNA reverse transcription (cDNA synthesis) (RT Easy™ I (For first-strand cDNA synthesis) Reverse Transcription Kit, Chengdu ForeGene Biotechnology Co., Ltd.) was carried out according to the conditions described in Table 2. The resulting cDNA was used to prepare a fluorescence quantitative PCR reaction solution according to Table 3. The fluorescence quantitative PCR reaction conditions were set according to Table 4, and the fluorescence quantitative PCR reaction (Real time PCR Easy™-SYBR Green Fluorescence Quantification Kit, Chengdu ForeGene Biotechnology Co., Ltd.) was performed using cDNA from the reverse transcription reaction as a template. The relative expression level 2^−ΔΔCt of the target gene was calculated from the Ct value of each sample with the blank control group as a control and β-Actin as an internal reference.
Based on the maximum level of VEGF-A mRNA expression promoted by a drug at a certain concentration, the activity of the drug was determined. The expression level of VEGF-A mRNA in macrophages was defined as 1 when no drug was added. Using a traditional Chinese medicine injection Salvianolate that is used in the treatment of Cardio-cerebrovascular disease and promotes a maximum level of VEGF-A mRNA expression of 6 in macrophages (the results are shown in Table 5) as a judgment standard, the compound promoting a maximum level of VEGF-A mRNA expression of 4 or more in macrophage was a target compound. That is, when the maximum level of VEGF-A mRNA expression in macrophages promoted by the test compound is over 4-fold higher than the expression level of VEGF-A mRNA in macrophages without the addition of the test compound, the test compound was a preliminary target compound promoting angiogenesis.

On to `COc1ccccc1CCCCO[C@@H]1O[C@H](CO)[C@@H](O)[C@H](O)[C@H]1O` [TG-001], for which the fold induction at 1 µM was determined as 3.68, the fold induction at 100 µM came to 1.65, the fold induction at 500 µM was determined as 7.89 and the fold induction at 1000 µM was determined as 1.91. Also, the fold induction at 2000 µM is 2.36 and the fold induction at 3000 µM is 0.68.

On to `COc1cc(CCCCO[C@@H]2O[C@H](CO)[C@@H](O)[C@H](O)[C@H]2O)cc(OC)c1` [TG-002], for which the fold induction at 1 µM was determined as 1.71, the fold induction at 100 µM turned out to be 1.68, the fold induction at 500 µM stood at 1.88 and the fold induction at 1000 µM amounted to 1.21. Besides, the fold induction at 2000 µM amounted to 0.44 and the fold induction at 3000 µM stood at 0.73.

Consider `COc1cccc(CCCCO[C@@H]2O[C@H](CO)[C@@H](O)[C@H](O)[C@H]2O)c1` [TG-004], for which the fold induction at 1 µM is 0.9, the fold induction at 100 µM came to 0.4, the fold induction at 500 µM is 0.73 and the fold induction at 1000 µM turned out to be 1.11. Moreover, the fold induction at 2000 µM amounted to 4.29 and the fold induction at 3000 µM is 2.66.

Consider `COc1ccc(CCCCCO[C@@H]2O[C@H](CO)[C@@H](O)[C@H](O)[C@H]2O)cc1` [TG-005], for which the fold induction at 1 µM is 0.91, the fold induction at 100 µM was 0.36, the fold induction at 500 µM was determined as 2.64 and the fold induction at 1000 µM was determined as 1.15. Besides, the fold induction at 2000 µM worked out at 1.3 and the fold induction at 3000 µM was found to be 2.39.

Regarding `COc1ccc(CCCCCCO[C@@H]2O[C@H](CO)[C@@H](O)[C@H](O)[C@H]2O)cc1` [TG-006], the fold induction at 1 µM was found to be 3.86, the fold induction at 100 µM turned out to be 1.92, the fold induction at 500 µM was found to be 2.48 and the fold induction at 1000 µM came out at 0.7. The fold induction at 2000 µM was 0.48 and the fold induction at 3000 µM stood at 0.44.

Take `COc1cc(CCCCO[C@@H]2O[C@H](CO)[C@@H](O)[C@H](O)[C@H]2O)cc(OC)c1OC` [TG-007]: the fold induction at 1 µM was determined as 4.38, the fold induction at 100 µM came out at 1.67, the fold induction at 500 µM was 1.42 and the fold induction at 1000 µM worked out at 2.87. Also, the fold induction at 2000 µM came to 0.65 and the fold induction at 3000 µM was 0.99.

For `OC[C@H]1O[C@@H](OCCCCc2ccc3c(c2)OCO3)[C@H](O)[C@@H](O)[C@@H]1O` [TG-008], the fold induction at 1 µM turned out to be 3.34, the fold induction at 100 µM worked out at 1.38, the fold induction at 500 µM came to 1.42 and the fold induction at 1000 µM was determined as 0.61. For the same compound, the fold induction at 2000 µM turned out to be 6.28 and the fold induction at 3000 µM turned out to be 5.46.

Regarding `OC[C@H]1O[C@@H](OCCCCC2CCCCC2)[C@H](O)[C@@H](O)[C@@H]1O` [TG-009], the fold induction at 1 µM stood at 1.29, the fold induction at 100 µM turned out to be 1.28, the fold induction at 500 µM amounted to 0.95 and the fold induction at 1000 µM was found to be 1. For the same compound, the fold induction at 2000 µM amounted to 1.61 and the fold induction at 3000 µM amounted to 5.94.

Take `OC[C@H]1O[C@@H](OCCCCc2ccc(F)cc2)[C@H](O)[C@@H](O)[C@@H]1O` [TG-010]: the fold induction at 1 µM is 0.98, the fold induction at 100 µM is 0.68, the fold induction at 500 µM was found to be 0.69 and the fold induction at 1000 µM turned out to be 1.48. Further, the fold induction at 2000 µM amounted to 5.31 and the fold induction at 3000 µM is 9.78.

On to `O=[N+]([O-])c1ccc(CCCCO[C@@H]2O[C@H](CO)[C@@H](O)[C@H](O)[C@H]2O)cc1` [TG-011], for which the fold induction at 1 µM came to 1.75, the fold induction at 100 µM was 1.18, the fold induction at 500 µM turned out to be 1.3 and the fold induction at 1000 µM was 0.46. Also, the fold induction at 2000 µM is 1.24 and the fold induction at 3000 µM came to 0.55.
